What all share (conditions): treatment: drug alone; 5 days
The test system of assay [1] is 769-P. In words: AUC of dose-response viability curve, drug alone (arbitrary (AUC of normalised viability)); higher = less growth inhibition. The procedure:
(§1)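 Primary HTS: 8 RCC cell lines treated with 8 doses (up to 10 uM) of each library drug alone for 5 days; viability read by CellTiter-Glo and normalised to DMSO. GI50 was fitted with XLfit (4-parameter), AUC is the area under the dose-response curve, and minimum viability is the lowest fraction of DMSO viability across doses.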

The test system of assay [2] is CAKI-1. The assay is described as above. The procedure:
as §1

For assay [3], the system named is ACHN. Described as above. The procedure:
as §1

The subject of assay [4] is TK-10. The description is as above. The procedure: as §1
Assay [5] deals with UO-31. The assay is described as above. The procedure:
as §1

The test system of assay [6] is SN12C. The description is as above. The procedure:
as §1

The test system of assay [7] is 786-O. The description is as above. The procedure: as §1
Assay [8] concerns A498. Described as above. The procedure:
as §1

The test system of assay [9] is 769-P. Briefly: GI50, drug alone; higher = less potent. The procedure: as §1
Assay [10] concerns CAKI-1. Briefly: GI50, drug alone; higher = less potent. The procedure: as §1
The test system of assay [11] is ACHN. In words: GI50, drug alone; higher = less potent. The procedure: as §1
Assay [12] deals with TK-10. Briefly: GI50, drug alone; higher = less potent. The procedure:
as §1

For assay [13], the system named is UO-31. In words: GI50, drug alone; higher = less potent. The procedure:
as §1

The subject of assay [14] is SN12C. In words: GI50, drug alone; higher = less potent. The procedure: as §1
Assay [15] deals with 786-O. In words: GI50, drug alone; higher = less potent. The procedure:
as §1

The test system of assay [16] is A498. Briefly: GI50, drug alone; higher = less potent. The procedure:
as §1

For assay [17], the system named is 769-P. In words: minimum viability across doses, drug alone, relative to DMSO (fraction); higher = less growth inhibition. The procedure: as §1
The subject of assay [18] is CAKI-1. The assay is described as above. The procedure:
as §1

The subject of assay [19] is ACHN. The assay is described as above. The procedure: as §1
Assay [20] deals with TK-10. The description is as above. The procedure:
as §1

Assay [21] has as its system UO-31. Described as above. The procedure: as §1
The subject of assay [22] is SN12C. The description is as above. The procedure:
as §1

Assay [23] relates to 786-O. The description is as above. The procedure: as §1
The test system of assay [24] is A498. The assay is described as above. The procedure: as §1

The values that follow come from the supplement of paper PMC8149375.

For `CCc1cc2c(cc1N1CCC(N3CCOCC3)CC1)C(C)(C)c1[nH]c3cc(C#N)ccc3c1C2=O`, the “AUC of dose-response viability curve” value in the assay with 769-P [1] was 3.67; with CAKI-1 [2], 2.98; in the assay with ACHN [3] it was 3; with TK-10 [4] it was 2.93; in the assay with UO-31 [5], 6.33; in the assay on SN12C [6] it was 3.28. Besides, the “AUC of dose-response viability curve” value in the assay with 786-O [7] was found to be 3; in the assay on A498 [8] it was 5.08. The “GI50, drug alone” value with 769-P [9] was over 10000 nM; in the assay on CAKI-1 [10], 5020 nM; with ACHN [11], 5470 nM; in the assay with TK-10 [12], over 10000 nM; in the assay with UO-31 [13] it was over 10000 nM; in the assay on SN12C [14] it was over 10000 nM. In addition, the “GI50, drug alone” value with 786-O [15] and in the assay on A498 [16] was over 10000 nM each time. Further, the “minimum viability across doses” value with 769-P [17] stood at 0.922; in the assay on CAKI-1 [18], 0.428; in the assay with ACHN [19] it was 0.366; with TK-10 [20] it was 0.612; in the assay with UO-31 [21] it was 1.02; in the assay with SN12C [22], 0.801. Moreover, the figures for the “minimum viability across doses” value in the assay with 786-O [23] and with A498 [24] were 0.655 and 1.06, respectively.

`Cc1ccc([N+](=O)[O-])cc1S(=O)(=O)N(C)/N=C/c1cnc2ccc(Br)cn12.Cl` [PIK-75]: the “AUC of dose-response viability curve” value turned out to be 1.61 in the assay with 769-P [1]; 0.988 with CAKI-1 [2]; 1.01 in the assay on ACHN [3]; 1.56 with TK-10 [4]; 1.71 with UO-31 [5]; 1.33 in the assay on SN12C [6]. Moreover, the “AUC of dose-response viability curve” value with 786-O [7] was determined as 1.09; in the assay with A498 [8], 1.5. Besides, the “GI50, drug alone” value in the assay on 769-P [9] stood at 117 nM; in the assay with CAKI-1 [10], 25.8 nM; with ACHN [11], 30.1 nM; in the assay on TK-10 [12], 70.5 nM; in the assay on UO-31 [13], 84 nM; in the assay with SN12C [14], 70 nM. The “GI50, drug alone” value with 786-O [15] was determined as 40.2 nM; in the assay on A498 [16], 82.1 nM. The “minimum viability across doses” value in the assay on 769-P [17] was 0.0087; in the assay with CAKI-1 [18] it was 0.0354; in the assay on ACHN [19], 0.00398; in the assay with TK-10 [20], 0.121; with UO-31 [21], 0.00672; in the assay with SN12C [22], 0.00713. Besides, the “minimum viability across doses” value in the assay with 786-O [23] is 0.00345; in the assay on A498 [24], 0.0119.

For `CN1CCN(CCOc2cc(OC3CCOCC3)c3c(Nc4c(Cl)ccc5c4OCO5)ncnc3c2)CC1` [Saracatinib (AZD0530)], the “AUC of dose-response viability curve” value came out at 2.47 in the assay on 769-P [1]; 3.08 in the assay with CAKI-1 [2]; 2.46 in the assay on ACHN [3]; 2.45 in the assay on TK-10 [4]; 4.46 in the assay with UO-31 [5]; 2.84 with SN12C [6]. Besides, the “AUC of dose-response viability curve” value in the assay with 786-O [7] is 2.35; in the assay with A498 [8], 3.69. For the same compound, the “GI50, drug alone” value with 769-P [9] is 1260 nM; in the assay with CAKI-1 [10], 2340 nM; with ACHN [11], 1030 nM; in the assay with TK-10 [12] it was 1220 nM; in the assay with UO-31 [13], 8990 nM; in the assay on SN12C [14] it was over 10000 nM. The “GI50, drug alone” value was 2810 nM in the assay on 786-O [15] and over 10000 nM with A498 [16]. In addition, the “minimum viability across doses” value in the assay with 769-P [17] was determined as 0.0835; in the assay with CAKI-1 [18], 0.213; in the assay on ACHN [19], 0.22; with TK-10 [20] it was 0.109; in the assay with UO-31 [21], 0.447; with SN12C [22], 0.504. Besides, the “minimum viability across doses” value in the assay with 786-O [23] turned out to be 0.302; with A498 [24], 0.958.

As to `O=C1NC(=O)[C@@H](c2cn3c4c(cccc24)CCC3)[C@@H]1c1c[nH]c2ccccc12` [ARQ 197 (Tivantinib)], the “AUC of dose-response viability curve” value in the assay on 769-P [1] came to 2.55; in the assay with CAKI-1 [2] it was 2.54; in the assay with ACHN [3], 2.63; in the assay with TK-10 [4], 2.77; with UO-31 [5], 3.27; with SN12C [6], 2.86. Moreover, the results for the “AUC of dose-response viability curve” value with 786-O [7] and in the assay on A498 [8] were 2.06 and 3, respectively. For the same compound, the “GI50, drug alone” value in the assay with 769-P [9] worked out at 1550 nM; in the assay with CAKI-1 [10], 1060 nM; in the assay with ACHN [11] it was 1540 nM; with TK-10 [12] it was 2880 nM; in the assay with UO-31 [13], 1310 nM; in the assay on SN12C [14], 2170 nM. The “GI50, drug alone” value was 424 nM with 786-O [15] and 1150 nM with A498 [16]. Further, the “minimum viability across doses” value stood at 0.0795 in the assay with 769-P [17]; 0.201 in the assay on CAKI-1 [18]; 0.144 in the assay with ACHN [19]; 0.326 with TK-10 [20]; 0.0233 with UO-31 [21]; 0.251 in the assay with SN12C [22]. Besides, the figures for the “minimum viability across doses” value in the assay with 786-O [23] and in the assay on A498 [24] were 0.00526 and 0.121, respectively.

Turning to `O=C1NC(=O)C(c2ccccc2[N+](=O)[O-])=C1Nc1ccc(O)c(Cl)c1`, the “AUC of dose-response viability curve” value with 769-P [1] was determined as 3.29; with CAKI-1 [2], 3.4; in the assay with ACHN [3], 3.39; in the assay with TK-10 [4], 3.02; in the assay on UO-31 [5] it was 4; with SN12C [6], 3.05. Further, the “AUC of dose-response viability curve” value turned out to be 2.33 in the assay on 786-O [7] and 3.58 in the assay with A498 [8]. In addition, the “GI50, drug alone” value in the assay on 769-P [9], in the assay on CAKI-1 [10], in the assay with ACHN [11], with TK-10 [12], in the assay on UO-31 [13] and with SN12C [14] was over 10000 nM throughout. For the same compound, the “GI50, drug alone” value in the assay with 786-O [15] and with A498 [16] was over 10000 nM throughout. The “minimum viability across doses” value in the assay with 769-P [17] was 0.898; with CAKI-1 [18], 0.869; in the assay on ACHN [19], 0.879; with TK-10 [20], 0.804; in the assay with UO-31 [21] it was 0.634; with SN12C [22], 0.802. In addition, the “minimum viability across doses” value in the assay with 786-O [23] turned out to be 0.559; in the assay on A498 [24] it was 0.922.
